Measurements: ChEMBL document CHEMBL6127034, “Design, synthesis and biological evaluation of a novel PAK1 degrader for the treatment of triple negative breast cancer” (Bioorg Med Chem, 2024)

Test system: MDA-MB-231
Test: Induction of apoptosis in human MDA-MB-231 cells assessed as necrotic cells at 2.5 to 10 uM incubated for 48 hrs by Annexin V-FITC/PI staining based flow cytometry (reference value: 1.08 %)
Assay type: functional
Conditions: dose 2.5-10 µM

How did the Activity turn out when `Cc1ncsc1-c1ccc([C@H](C)NC(=O)[C@@H]2C[C@@H](O)CN2C(=O)[C@@H](NC(=O)CCc2cn(CCCCCCCn3c(=O)c(-c4ccc(Cl)cc4Cl)cc4cnc(NC5CC5)nc43)nn2)C(C)(C)C)cc1` was run?
Its Activity is 1.74%.
